Experimental findings from patent US8158621B2, “Methods of treating or preventing autoimmune diseases with 2,4-pyrimidinediamine compounds” (Rigel Pharmaceuticals, Inc., priority 2002, dated 2012) are described below.

pIC50: −log10 of the molar value. Some results are limits rather than exact numbers.

For the first test, the system named is Human Jurkat T-cells (clone N). Kind of test: Jurkat T-cell activation (anti-TCR, CD69 upregulation). The test is classed as cell-based.
Conditions: not given
An outline of the steps:
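Readout is CD69 upregulation by flow cytometry (anti-CD69-APC, 20 min at 4 °C) after 20 h anti-TCR (C305, 500 ng/ml) stimulation at 37 °C.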
`Cn1nnnc1COc1ccc(Nc2nccc(Nc3cccc(O)c3)n2)cc1` [Compound R920917] gave a pIC50 of 5.58.

`CCOC(=O)C(C)(C)c1ccc(Nc2nc(Nc3ccc4c(c3)OCCO4)ncc2F)cc1` [Compound R935148] showed a pIC50 below 5.00.

For the molecule `CC(C)NC(=O)COc1cccc(Nc2ncc(F)c(Nc3ccc4c(c3)OCCO4)n2)c1` [Compound R926830], the pIC50 is 5.38.

On to `O=C1CN=C2COc3ccc(Nc4nc(Nc5cccc(O)c5)ncc4F)cc3N12` [Compound R945236], for which the pIC50 is 5.53.

In the case of `COc1ccc(Nc2nc(Nc3cccc(OCC(=O)NCC(O)CO)c3)ncc2F)cc1OC` (centres unmarked) [Compound R926734], the negative-log IC50 (pIC50) is 4.95.

On to `COC(=O)COc1cccc(Nc2ncc(F)c(Nc3ccc4c(c3)OCCCO4)n2)c1` [Compound R935185], for which the pIC50 is 5.39. Against the preceding molecule, the pIC50 is 0.44 log units higher.

`CNC(=O)COc1cccc(Nc2ncc(F)c(Nc3ccc4c(c3)CNCC4)n2)c1` [Compound R926914] gave a pIC50 below 5.00.

Take `N#CCOc1ccc(Nc2ncc(F)c(Nc3ccc4c(c3)OCCO4)n2)cc1` [Compound R926480]: the pIC50 was below 5.00.

Consider `Cc1cc(Nc2nc(Nc3cccc(OCC(=O)N4CCOCC4)c3)ncc2F)cc(C)c1O` [Compound R940254], for which the pIC50 was 5.42.

Regarding `O=C(COc1cccc(Nc2ncc(F)c(Nc3ccc4c(c3)NCCO4)n2)c1)NCCCO` [Compound R909252], the pIC50 was 6.18.

In the case of `CNC(=O)COc1cccc(Nc2ncc(F)c(Nc3ccc(C)c(OC)c3)n2)c1` [Compound R926902], the pIC50 was below 5.00.

`Nc1cccc(Nc2nc(Nc3cccc(NC(=O)CCC(N)C(=O)O)c3)ncc2F)c1` (racemic) [Compound R950255] had a pIC50 below 5.00.

`O=C(COc1cccc(Nc2ncc(F)c(Nc3ccc4c(c3)OCCO4)n2)c1)NC1CC1` [Compound R926848] gave a pIC50 of 5.76.

`O=C(CNc1cccc(Nc2ncc(F)c(Nc3ccc4c(c3)OCCO4)n2)c1)NCCO` [Compound R950195] gave a pIC50 of 5.74. The pIC50 values of the last two molecules are within 0.2 log units of each other.

As to `COC(=O)c1ccc(Cn2cc3ccc(Nc4ncc(F)c(Nc5ccc6c(c5)OCCO6)n4)cc3n2)c(OC)c1` [Compound R935336], the pIC50 was 5.54.

For the molecule `CC(C)(CO)c1ccc(Nc2ncc(F)c(Nc3ccc4oc(CO)cc4c3)n2)cc1` [Compound R935177], the pIC50 was 5.38.

Regarding `CCOC(=O)COc1ccc(Nc2ncc(C#N)c(Nc3ccc(OCC(=O)OCC)cc3)n2)cc1` [Compound R925775], the pIC50 was below 5.00.

Consider `CNC(=O)COc1cccc(Nc2ncc(F)c(Nc3ccc4c(c3)C=CCC4)n2)c1` [Compound R926944], for which the pIC50 is 5.46.

The molecule `COc1cc(C(=O)NS(=O)(=O)c2ccccc2C)ccc1Cn1ncc2cc(Nc3ncc(F)c(Nc4cccc(O)c4)n3)ccc21` [Compound R935340] gave a pIC50 below 5.00.

In turn, `O=C(c1cc2cc(Nc3ncc(F)c(Nc4ccc5c(c4)OCCO5)n3)ccc2o1)N1CCCNCC1` [Compound R926767] showed a negative-log IC50 (pIC50) of 5.57.

In the case of `CSc1nc2ccc(Nc3ncc(F)c(Nc4ccc5nc(SC)sc5c4)n3)cc2s1` [Compound R950202], the pIC50 is below 5.00.

Regarding `O=C(COc1ccc(Nc2ncc(F)c(Nc3ccc(OCC(=O)N4CCCC4)cc3)n2)cc1)N1CCCC1` [Compound R926563], the negative logarithm of the IC50 (pIC50) was below 5.00.

For the molecule `O=C(COc1cccc(Nc2ncc(F)c(Nc3ccc4c(c3)OCCO4)n2)c1)NC(CO)CO` [Compound R926784], the negative-log IC50 (pIC50) is 5.62.

Molecule `COC(=O)Cn1ncc2cc(Nc3ncc(F)c(Nc4ccc5c(cnn5CC(=O)OC)c4)n3)ccc21` [Compound R935211] gave a pIC50 of 5.15.

The molecule `CCCCNC(=O)COc1ccc(Nc2ncc(C#N)c(Nc3ccc(OCC(=O)NCCCC)cc3)n2)cc1` [Compound R925860] had a pIC50 of 4.38.

On to `Oc1cccc(Nc2nc(NC3CCN(Cc4ccccc4)CC3)ncc2F)c1` [Compound R940264], for which the pIC50 was below 5.00.

`CNC(=O)Cn1ncc2cc(Nc3ncc(F)c(Nc4ccc(OC(C)C)cc4)n3)ccc21` [Compound R935239]: the pIC50 is 5.76.

`ON=C1CCOc2ccc(Nc3ncc(F)c(Nc4ccc5c(c4)C(=NO)CCO5)n3)cc21` [Compound R950381] showed a pIC50 of 6.09.

`CCOC(=O)c1cnc(Nc2ccc(OCC(=O)NCC3CC3)cc2)nc1Nc1cccc(O)c1` [Compound R925838] gave a pIC50 below 5.00.

For the molecule `CCOC(=O)C1CCN(Cc2cccc(Nc3nc(Nc4cccc(OCC(=O)NC)c4)ncc3F)c2)CC1` [Compound R926905], the pIC50 is 5.19.

The test is the same for the next values; noted with them: Homo sapiens.
Turning to `Cc1ccc(Nc2ccnc(Nc3ccc(C)c([N+](=O)[O-])c3)n2)cc1[N+](=O)[O-]` [Compound R950153], the pIC50 was below 5.00.

Still in this test, the particulars now being: Homo sapiens, Jurkat.
In turn, `CCOC(=O)c1cc2cc(Nc3ncc(F)c(Nc4ccc5[nH]c(C(=O)OCC)cc5c4)n3)ccc2[nH]1` [Compound R926616] had a pIC50 of 5.72.

In turn, `CNC(=O)c1cccc(Nc2ncc(F)c(Nc3ccc4cc[nH]c4c3)n2)c1` [Compound R926933] showed a negative-log IC50 (pIC50) of 5.55.

`N#Cc1cccc(Nc2nc(Nc3cccc(O)c3)ncc2F)c1` [Compound R945109] gave a pIC50 of 5.02.

With `CC(C)(C)c1cccc(Nc2ncc(F)c(Nc3cccc(O)c3)n2)c1` [Compound R940257], the pIC50 is below 5.00.

In the case of `O=C(O)c1cccc(Nc2ncc(F)c(Nc3cccc(C(=O)O)c3)n2)c1` [Compound R945036], the pIC50 is below 5.00.

`Fc1cnc(NCCc2ccccc2)nc1Nc1ccc2c(c1)OCCO2` (racemic) [Compound R908697]: the negative-log IC50 (pIC50) is below 5.00.

Turning to `Fc1cc(F)cc(Nc2ncc(F)c(Nc3ccc4c(c3)OCCO4)n2)c1` [Compound R926898], the pIC50 is below 5.00.

`CCOc1ccc(Nc2ncc(F)c(Nc3ccc4c(c3)OCCO4)n2)cc1` [Compound R926211]: the negative logarithm of the IC50 (pIC50) was 4.83.

`c1coc(-c2cnc(Nc3ccc4c(c3)OCCO4)nc2Nc2ccc3c(c2)OCCO3)c1` [Compound R925785] gave a negative-log IC50 (pIC50) of 5.51. Compared with the last molecule, the pIC50 is 0.68 log units higher.

In turn, `CC(C)(CO)c1ccc(Nc2nc(Nc3ccc(OCCO)cc3)ncc2F)cc1` [Compound R935158] showed a pIC50 of 5.61.

`CC(C)(C)c1ccc(Nc2nc(Nc3ccc4c(c3)CC(C(=O)O)O4)ncc2F)cc1` (centres unmarked) [Compound R926720]: the pIC50 is below 5.00.

`Fc1cnc(NCc2csc3ccccc23)nc1NCc1csc2ccccc12` [Compound R945145] showed a pIC50 below 5.00.

Regarding `OCCOc1cccc(Nc2nc(Nc3ccc4c(c3)OCCO4)ncc2F)c1` [Compound R935176], the pIC50 was 5.70.

Turning to `COc1ccc(Nc2ccnc(Nc3ccc(OC)c(-c4ccccc4)c3)n2)cc1-c1ccccc1` [Compound R925806], the negative-log IC50 (pIC50) was below 5.00.

In turn, `COC(=O)c1ccc(Nc2ncc(F)c(Nc3ccc(C(=O)OC)c(OC)c3)n2)cc1OC` [Compound R945065] showed a pIC50 of 4.84.

Molecule `COC(=O)Cc1ccc(Nc2ncc(F)c(Nc3ccc(CC(=O)OC)cc3)n2)cc1` [Compound R926605] showed a pIC50 below 5.00.

`COc1ccc(-c2ccccc2)cc1Nc1ccnc(Nc2cc(-c3ccccc3)ccc2OC)n1` [Compound R925805] gave a pIC50 below 5.00.

For the molecule `Fc1cnc(Nc2ccc(N3CCN(Cc4ccccc4)CC3)cc2)nc1Nc1ccc(N2CCN(Cc3ccccc3)CC2)cc1` [Compound R945152], the pIC50 is below 5.00.

Molecule `CCNC(=O)Nc1cccc(Nc2ncc(F)c(Nc3cccc(NC(=O)NCC)c3)n2)c1` [Compound R945045] had a pIC50 of 5.12.
